Values joined by “and” are separate entries in the source; they are usually repeats but may differ in a detail not shown here. Identical values can stand only once.
Experiments:
[1] = test system: Campylobacter jejuni ATCC 33291; test: Food contact suspension test (FCS, AOAC 960.09); format: cell-based; conditions: for concentration required for efficacy: 75° F., FIG. 6; for Avg. Log10 Growth / Log10 Reduction: 30 second
Experimental: Antimicrobial Efficacy of Peroxylactic Acid. The antimicrobial efficacy of generated peroxylactic acid was evaluated following the US EPA food contact suspension test protocol (AOAC 960.09) against Staphylococcus aureus and Escherichia coli according to the conditions set forth in Table 7.
Additional efficacy testing against Campylobacter jejuni ATCC 33291 as described in Table 10 was completed to compare efficacy at 75° F. of lactic acid, peroxylactic acid (PLA) and peroxyacetic acid (PAA). […] In particular, in comparison to lactic acid substantially lower concentrations are required (25 ppm PLA instead of approximately 5000 ppm lactic acid).
Beneficially, the concentration of peroxylactic acid required for micro efficacy are substantially lower than lactic acid and the lactic acid which is formed upon degradation of the peroxylactic acid is further beneficial for micro efficacy.

[2] = Kinetic instability of peroxylactic acid generated through equilibrium reaction of lactic acid and hydrogen peroxide (FIG. 4); format: physicochemical; conditions: generated through equilibrium between lactic acid and H2O2, FIG. 4
Experimental: Comparison of Lactide Ester to Lactic Acid Precursor to Generate Peroxylactic Acid. The equilibrium reaction using lactic acid reagent for generating perlactic acid was performed to show the distinct advantages of the methods of generation according to the invention. […] It is also known that the reaction results in additional byproducts—which may not be suitable for various applications of use.
This makes it commercially not feasible to deliver the compositions for end application at customer locations.

[3] = test system: Salmonella, E. coli, Campylobacter and Listeria; test: Food contact suspension test (AOAC 960.09), FIG. 7; format: cell-based; conditions: 30 seconds
Experimental: (§1) Additional antimicrobial efficacy of generated peroxylactic acid was evaluated following the US EPA food contact suspension test protocol (AOAC 960.09) against Salmonella, E. coli, Campylobacter and Listeria according to the conditions set forth in Table 16.
In addition at 100 ppm PLA provides efficacy of greater than 7 log reduction against Listeria, whereas peroxyacetic acid is known to require at least about 180 ppm for greater than 7 log reduction against Listeria.

[4] = test system: Listeria monocytogenes ATCC 49594; test: Food contact suspension test (FCS, AOAC 960.09); format: cell-based; conditions: 30 second
Experimental: as §1

SMILES | concentration required for efficacy [1] | stability of generated perlactic acid [2] | low concentration dose providing efficacy against various microbes [3] | Avg. Log10 Growth ([4]; 50 ppm PLA) | CFU/mL ([4]; 50 ppm PLA) | Log10 Growth ([4]; 50 ppm PLA) | Log10 Reduction ([4]; 50 ppm PLA) | Avg. Log10 Growth ([4]; 100 ppm PLA) | Log10 Reduction ([4]; 100 ppm PLA) | Avg. Log10 Growth ([4]; 150 ppm PLA) | Log10 Reduction ([4]; 150 ppm PLA) | Avg. Log10 Growth ([1]; 25 ppm PLA) | Log10 Reduction ([1]; 25 ppm PLA) | Avg. Log10 Growth ([1]; 50 ppm PLA) | Log10 Reduction ([1]; 50 ppm PLA) | Avg. Log10 Growth ([1]; 75ppm PLA) | Log10 Reduction ([1]; 75ppm PLA)
CC(O)C(=O)O (stereo not drawn) [Lactic Acid, reference compound] | approximately 5000 ppm |  |  |  |  |  |  |  |  |  |  |  |  |  |  |  | 
CC(O)C(=O)OO (stereo not drawn) [PLA, peroxylactic acid] | 25 ppm | very unstable | 25 ppm | 5.84 Log10 | 6.90E+05 CFU/mL and 6.80E+05 CFU/mL | 5.84 Log10 and 5.83 Log10 | 2.23 Log10 | <1.00 Log10 | >7.06 Log10 | <1.00 Log10 | >7.06 Log10 | <1.00 Log10 | >7.06 Log10 | <1.00 Log10 | >7.06 Log10 | <1.00 Log10 | >7.06 Log10
